Data: patent US20240190860A1, “8-CYCLO-SUBSTITUTED QUINAZOLINE DERIVATIVES AS LPA RECEPTOR 2 INHIBITORS” (CHIESI FARMACEUTICI S.p.A., priority 2021, published 2024)

Target: T1, human recombinant LPA2 expressed in CHO cells (Homo sapiens, UniProt Q9HBW0)
T1 construct: expressed in transfected cells; host or cells: CHO cells (CHO-hLPA2 cell line)
Assay: FLIPR calcium mobilization assay, LPA2 antagonism in CHO-hLPA2 cells
Type: cell-based
Conditions: CHO-hLPA2 cells, inhibition of LPA EC80 Ca2+ response, 30 min pre-incubation; read-out: LPA2 IC50
Procedure: The effectiveness of compounds of the present invention as LPA2 antagonist can be determined at the human recombinant LPA2 expressed in CHO cells, using a FLIPR assay in 384 well format.
CHO-hLPA2 cell lines are cultured in a humidified incubator at 5% C02 in DMEM/F-12 (1:1) MIXTURE with 2 mM Glutamax, supplemented with 10% of Foetal Bovine Serum, 1 mM Sodium Pyruvate, 11 mM Hepes and 1× Penicillin/Streptomycin. CHO hLPA2 cells are seeded into black walled clear-bottom 384-well plates (#781091, Greiner Bio-One GmbH) at a density of 7,500 cells per well in 50 μl culture media and grown overnight in a 37° C. humidified CO2-incubator. Serial dilutions (1:3 or 1:4, 11 points CRC) of compounds are performed in 100% DMSO at 200× the final concentration. The compounds are diluted 1:50 prior to the experiment with Assay Buffer (20 mM HEPES, 145 mM NaCl, 5 mM KCl, 5.5 mM glucose, 1 mM MgCl2 and 2 mM CaCl2, pH 7.4 containing 0.01% Pluronic F-127) to obtain a solution corresponding to […] the final concentration in the assay (4×, 2% DMSO). The final concentration of DMSO in the assay will be 0.5% in each well. Medium is removed by aspiration and cells are then incubated with 30 μl of a loading solution containing 5 μM of the cytoplasmic Ca2+ indicator Cal-520 AM in Assay Buffer containing 2.5 mM probenecid for 30 min at 37° C. incubator (cell loading). The loaded cell plates are transferred into the FLIPR instrument and calcium responses are monitored during the on-line addition protocols. For testing of compounds, after the cell loading, 10 μl/well of 4× antagonists' solution was added onto the cells. After 30 min pre-incubation (at 37° C.), 10 μl/well of 5× concentrated LPA EC80 was added and Ca2+ mobilization responses was followed during the on-line addition protocol. Intracellular peak fluorescence values subtracted by baseline fluorescence are exported and analysed to determine IC50 values, respectively. The calcium response is expressed as percentage of the maximal inhibition of the EC80 agonist response.
The raw data (peak height expressed as relative fluorescence units) are normalized and transformed into “percent of inhibition”. Curve fitting and pIC50 (−LogIC50) estimations are carried out using a four-parameter logistic model using XLfit Software.

T1 sequence (Q9HBW0 whole entry): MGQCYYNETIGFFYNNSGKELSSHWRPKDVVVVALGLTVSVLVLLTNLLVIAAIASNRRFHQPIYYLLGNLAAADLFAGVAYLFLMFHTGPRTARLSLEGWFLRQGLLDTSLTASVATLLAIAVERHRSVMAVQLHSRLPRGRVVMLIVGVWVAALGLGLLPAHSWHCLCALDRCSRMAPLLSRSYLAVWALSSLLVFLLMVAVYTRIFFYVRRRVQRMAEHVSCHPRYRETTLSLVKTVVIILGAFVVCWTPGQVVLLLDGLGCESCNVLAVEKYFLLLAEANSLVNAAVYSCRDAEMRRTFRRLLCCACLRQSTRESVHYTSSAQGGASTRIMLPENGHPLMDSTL

| Compound | IC50 [nM] |
| --- | --- |
| COC(=O)Nc1nc(C)c(S(=O)(=O)N2CCN(C[C@H](C)Nc3ncnc4c(-c5sc(C)nc5C)cccc34)CC2)s1 [Example 1, methyl N-[5-({4-[(2S)-2-{[8-(2,4-dimethyl-1,3-thiazol-5-yl)quinazolin-4-yl]amino}propyl]piperazin-1-yl}sulfonyl)-4-methyl-1,3-thiazol-2-yl]carbamate] | < 10 |
| COC(=O)Nc1nc(C)c(S(=O)(=O)N2CCN(C[C@H](C)Nc3ncnc4c(-c5cnc(C)cn5)cccc34)CC2)s1 [Example 2, methyl N-[4-methyl-5-({4-[(2S)-2-{[8-(5-methylpyrazin-2-yl)quinazolin-4-yl]amino}propyl]piperazin-1-yl}sulfonyl)-1,3-thiazol-2-yl]carbamate] | 10 to 100 |
| Cc1cc(-c2ccc(S(=O)(=O)N3CCN(C[C@H](C)Nc4ncnc5c(-c6ccccc6)cccc45)CC3)s2)on1 [Example 4, N-[(2S)-1-(4-{[5-(3-methyl-1,2-oxazol-5-yl)thiophen-2-yl]sulfonyl}piperazin-1-yl)propan-2-yl]-8-phenylquinazolin-4-amine] | < 10 |
| Cc1noc(-c2ccc(S(=O)(=O)N3CCN(C[C@H](C)Nc4ncnc5c(-c6c(C)noc6C)cccc45)CC3)s2)c1C [Example 9, 8-(3,5-dimethyl-1,2-oxazol-4-yl)-N-[(2S)-1-(4-{[5-(3,4-dimethyl-1,2-oxazol-5-yl)thiophen-2-yl]sulfonyl}piperazin-1-yl)propan-2-yl]quinazolin-4-amine] | < 10 |
| COC(=O)Nc1nc(C)c(S(=O)(=O)N2CCN(C[C@H](C)Nc3ncnc4c(-c5c(C)noc5C)cccc34)CC2)s1 [Example 10, methyl N-[5-({4-[(2S)-2-{[8-(3,5-dimethyl-1,2-oxazol-4-yl)quinazolin-4-yl]amino}propyl]piperazin-1-yl}sulfonyl)-4-methyl-1,3-thiazol-2-yl]carbamate] | < 10 |
| Cc1cc(-c2ccc(S(=O)(=O)N3CCN(C[C@H](C)Nc4ncnc5c(-c6cnc(C(F)(F)F)s6)cccc45)CC3)s2)on1 [Example 15, N-[(2S)-1-(4-{[5-(3-methyl-1,2-oxazol-5-yl)thiophen-2-yl]sulfonyl}piperazin-1-yl)propan-2-yl]-8-[2-(trifluoromethyl)-1,3-thiazol-5-yl]quinazolin-4-amine] | < 1000 |
| Cc1cc(-c2ccc(S(=O)(=O)N3CCN(C[C@H](C)Nc4ncnc5c(-c6cccc(CN7CCCC7)c6)cccc45)CC3)s2)on1 [Example 16, N-[(2S)-1-(4-{[5-(3-methyl-1,2-oxazol-5-yl)thiophen-2-yl]sulfonyl}piperazin-1-yl)propan-2-yl]-8-{3-[(pyrrolidin-1-yl)methyl]phenyl}quinazolin-4-amine] | < 10 |
| Cc1cc(-c2ccc(S(=O)(=O)N3CCN(C[C@H](C)Nc4ncnc5c(-c6cccc(CN(C)C)c6)cccc45)CC3)s2)on1 [Example 17, 8-{3-[(dimethylamino)methyl]phenyl}-N-[(2S)-1-(4-{[5-(3-methyl-1,2-oxazol-5-yl)thiophen-2-yl]sulfonyl}piperazin-1-yl)propan-2-yl]quinazolin-4-amine] | < 10 |
| Cc1cc(-c2ccc(S(=O)(=O)N3CCN(CCNc4ncnc5c(-c6cccnc6)cccc45)CC3)s2)on1 [Example 19, N-[2-(4-{[5-(3-methyl-1,2-oxazol-5-yl)thiophen-2-yl]sulfonyl}piperazin-1-yl)ethyl]-8-(pyridin-3-yl)quinazolin-4-amine] | < 1000 |
| Cc1cc(-c2ccc(S(=O)(=O)N3CCN(C[C@H](C)Nc4ncnc5c(N6CCCC6)cccc45)CC3)s2)on1 [Example 20, N-[(2S)-1-(4-{[5-(3-methyl-1,2-oxazol-5-yl)thiophen-2-yl]sulfonyl}piperazin-1-yl)propan-2-yl]-8-(pyrrolidin-1-yl)quinazolin-4-amine] | < 10 |
| COC(=O)Nc1nc(C)c(S(=O)(=O)N2CCN(C[C@H](C)Nc3ncnc4c(-c5cccc(CN(C)C)c5)cccc34)CC2)s1 [Example 21, methyl N-[5-({4-[(2S)-2-[(8-{3-[(dimethylamino)methyl]phenyl}quinazolin-4-yl)amino]propyl]piperazin-1-yl}sulfonyl)-4-methyl-1,3-thiazol-2-yl]carbamate] | < 10 |
| COC(=O)Nc1nc(C)c(S(=O)(=O)N2CCN(C[C@H](C)Nc3ncnc4c(-c5cccc(CN6CCCC6)c5)cccc34)CC2)s1 [Example 22, methyl N-[4-methyl-5-({4-[(2S)-2-[(8-{3-[(pyrrolidin-1-yl)methyl]phenyl}quinazolin-4-yl)amino]propyl]piperazin-1-yl}sulfonyl)-1,3-thiazol-2-yl]carbamate] | < 10 |
| COC(=O)Nc1nc(C)c(S(=O)(=O)N2CCN(C[C@H](C)Nc3ncnc4c(-c5cccc(CN6CCN(C)CC6)c5)cccc34)CC2)s1 [Example 24, methyl N-[4-methyl-5-({4-[(2S)-2-[(8-{3-[(4-methylpiperazin-1-yl)methyl]phenyl}quinazolin-4-yl)amino]propyl]piperazin-1-yl}sulfonyl)-1,3-thiazol-2-yl]carbamate] | < 10 |

Other lines, results leading:

| IC50 [nM] | Compound |
| --- | --- |
| < 10 | Cc1cc(-c2ccc(S(=O)(=O)N3CCN(C[C@H](C)Nc4ncnc5c(-c6c(C)noc6C)cccc45)CC3)s2)on1 [Example 3, 8-(3,5-dimethyl-1,2-oxazol-4-yl)-N-[(2S)-1-(4-{[5-(3-methyl-1,2-oxazol-5-yl)thiophen-2-yl]sulfonyl}piperazin-1-yl)propan-2-yl]quinazolin-4-amine] |
| < 10 | Cc1cc(-c2ccc(S(=O)(=O)N3CCN(C[C@H](C)Nc4ncnc5c(-c6c(C)nn(C)c6C)cccc45)CC3)s2)on1 [Example 5, N-[(2S)-1-(4-{[5-(3-methyl-1,2-oxazol-5-yl)thiophen-2-yl]sulfonyl}piperazin-1-yl)propan-2-yl]-8-(1,3,5-trimethyl-1H-pyrazol-4-yl)quinazolin-4-amine] |
| < 10 | Cc1cc(-c2ccc(S(=O)(=O)N3CCN(C[C@H](C)Nc4ncnc5c(-c6cccnc6)cccc45)CC3)s2)on1 [Example 6, N-[(2S)-1-(4-{[5-(3-methyl-1,2-oxazol-5-yl)thiophen-2-yl]sulfonyl}piperazin-1-yl)propan-2-yl]-8-(pyridin-3-yl)quinazolin-4-amine] |
| < 10 | Cc1cc(-c2ccc(S(=O)(=O)N3CCN(C[C@H](C)Nc4ncnc5c(-c6sc(C)nc6C)cccc45)CC3)s2)on1 [Example 7, 8-(2,4-dimethyl-1,3-thiazol-5-yl)-N-[(2S)-1-(4-{[5-(3-methyl-1,2-oxazol-5-yl)thiophen-2-yl]sulfonyl}piperazin-1-yl)propan-2-yl]quinazolin-4-amine] |
| < 10 | Cc1cc(-c2ccc(S(=O)(=O)N3CCN(C[C@H](C)Nc4ncnc5c(-c6ccncc6)cccc45)CC3)s2)on1 [Example 8, N-[(2S)-1-(4-{[5-(3-methyl-1,2-oxazol-5-yl)thiophen-2-yl]sulfonyl}piperazin-1-yl)propan-2-yl]-8-(pyridin-4-yl)quinazolin-4-amine] |
| < 10 | Cc1cc(-c2ccc(S(=O)(=O)N3CCN(C[C@H](C)Nc4ncnc5c(-c6cncnc6)cccc45)CC3)s2)on1 [Example 11, N-[(2S)-1-(4-{[5-(3-methyl-1,2-oxazol-5-yl)thiophen-2-yl]sulfonyl}piperazin-1-yl)propan-2-yl]-8-(pyrimidin-5-yl)quinazolin-4-amine] |
| < 10 | Cc1cc(-c2ccc(S(=O)(=O)N3CCN(C[C@H](C)Nc4ncnc5c(-c6ccccn6)cccc45)CC3)s2)on1 [Example 12, N-[(2S)-1-(4-{[5-(3-methyl-1,2-oxazol-5-yl)thiophen-2-yl]sulfonyl}piperazin-1-yl)propan-2-yl]-8-(pyridin-2-yl)quinazolin-4-amine] |
| < 10 | Cc1cc(-c2ccc(S(=O)(=O)N3CCN(C[C@H](C)Nc4ncnc5c(-c6cn(C)nc6C(F)(F)F)cccc45)CC3)s2)on1 [Example 14, N-[(2S)-1-(4-{[5-(3-methyl-1,2-oxazol-5-yl)thiophen-2-yl]sulfonyl}piperazin-1-yl)propan-2-yl]-8-[1-methyl-3-(trifluoromethyl)-1H-pyrazol-4-yl]quinazolin-4-amine] |
| < 10 | Cc1cc(-c2ccc(S(=O)(=O)N3CCN(C[C@H](C)Nc4ncnc5c(-c6cn(C)nc6C6CC6)cccc45)CC3)s2)on1 [Example 18, 8-(3-cyclopropyl-1-methyl-1H-pyrazol-4-yl)-N-[(2S)-1-(4-{[5-(3-methyl-1,2-oxazol-5-yl)thiophen-2-yl]sulfonyl}piperazin-1-yl)propan-2-yl]quinazolin-4-amine] |
